# Counter-ions that a name gives are not always drawn.
# Tests used:
# [1] = Thermal stability by DSC and TG/DSC analysis
# Description: DSC analyses were carried out by using a SETARAM 141 Differential Scanning Calorimeter (SETARAM, 69300 Caluire, France). No purge gas was used. The reference material was an empty aluminum pan without cap. The samples were weighed in open aluminum pans, then placed in the analyzer. The analyses were performed within various temperature ranges using a 2°.min^−1 heating rate. SETARAM ACQUISITION Module software (v. 1.4) was used as control software and data processing was performed by using the SETARAM DATA PROCESSING Module software (v. 1.39).
# TG/DSC measurements were carried out by using a NETZSCH STA 449C Jupiter Thermogravimetric Analyzer (NETZSCH, D-95100 Selb, Germany) equipped with a low temperature furnace. The purge gas used was helium (gas flow=60 mL/min) and the reference material was an empty aluminum pan without cap. The samples were weighed in open aluminum pans, then placed in the analyzer. The analyses were performed within various temperature ranges using a 2°.min^−1 heating rate. PROTEUS software was used for the acquisition and data processing (v. 4.7.0).
# [2] = DVS hygroscopicity and moisture measurement, second procedure; type: physicochemical; conditions: 22° C.
# Description: Moisture sorption isotherms of the crystalline phases were obtained by using a DVS-1 automated water sorption analyzer (Surface Measurements Systems, Alperton, Middlesex, United Kingdom). The reference material was an empty glass pan and the total gas flow was 200 sccm·min^−1 (Standard Cubic Centimeters per minute). Temperature of analysis was 22° C. For each measurement, precisely ca. 15 mg of the sample were weighed in a glass pan beforehand allowed for the tare, then placed in the analyzer.
# As a first stage, dry nitrogen (0% R.H) was applied until constant weight of the sample in order to eliminate adsorbed or absorbed water (potential dehydration). Then, mass variations were recorded while R.H. was increased by steps of 10% R.H. The automated analyzer was allowed to start the following step as soon as the mass variation of the sample was less than 5.10^−4 mg·min^−1. The upper limit was adjusted below the deliquescence of the compound and never exceeded 98% R.H. This second stage was afterward followed by a stepped decrease of R.H. down to 0% R.H. This overall procedure constitutes a ‘Full cycle’ analysis. Several successive full cycles can be applied to the same sample.
# DVSWin (v 2.18) was used as control and data collection software whereas data processing was performed by using DVS Standard Analysis Suite (v 4.3).
# Further parameters used in DVS procedures are as follows: • Protocole Dynamic Vapour Sorption/Appareil ‘Surface Measurements Systems • Automated Water Sorption Analyser’/model: DVS-1 • Analysis method: • step mode, • Temperature: […] • number of steps, • step dm/dt<0.0005 (mg/min) • First stage R.H.=0% • Last Stage R.H.=98% • Half cycle or Full cycle (or several successive full cycles) • dm/dt window: 5 • Minimum Stage: 20 min • Maximum Stage: 120 min • Total Gaz Flow: 200 • Nitrogen: 200 Bars, H2O<3 ppm, O2<2 ppm, Ref. Azote N50 B50*0 • Initial sample weight: • Software—data collection and data processing • DVSWin v2.18 (control software), • DVS Standard Analysis Suite v4.3 (analysis software).]
# [3] = Chemical stability on storage, evaluated by HPAEC analysis
# [4] = DVS hygroscopicity and moisture measurement, first procedure; type: physicochemical
# Description: Moisture sorption isotherms of amorphous BrHPP was obtained by using an automated water sorption analyzer. Temperature of analysis was 20° C. For each measurement, precisely ca. 25 mg of the sample were weighed in a pan beforehand allowed for the tare, then placed in the analyzer.
# After a stabilization stage at 0% R.H. (R.H. stands for Relative Humidity), mass variations were recorded while R.H. was increased by steps of 20% R.H. The upper limit was adjusted to 80% R.H. This second stage was afterward followed by a stepped decrease of R.H. down to 0% R.H. This overall procedure constitutes a ‘Full cycle’ analysis. Several successive full cycles can be applied to the same sample.
compound,measurement,setting,value
"CC(O)(CBr)CCOP(=O)(O)OP(=O)(O)O (racemic) [BrHPP benzathin salt (Rac)-Mix-I, 3-(bromomethyl)-3-butanol-1-yl diphosphoric acid, N,N′-dibenzylethylenediammonium salts]",temperature of the fusion-degradation event (thermal stability),"[1]; DSC, non solvated crystalline form",above 146 °C
same,"reversible and reproducible mass variation, (de)hydration (Rac)-Mix-I / (Rac)-Mix-III",[2]; R.H. in the range of 50%-70%,6.1%
same,cumulated mass variations,[2]; between 0% and 50% R.H.,< 0.4%
same,cumulated mass variations,[2]; high relative humidity (up to 90%),< 0.2%
"CC(O)(CBr)CCOP(=O)(O)OP(=O)(O)O (racemic) [BrHPP sodium salt, reference compound]",degradation on storage,"[3]; 3 months, room temperature (about 25° C.), in contact with ambient atmosphere",50%
same,thermal behaviour in TG/DSC analysis,"[1]; fluctuations of DSC signal and continuous mass loss, even for temperatures close to ambient",undergoes chemical degradations
same,sensitivity to atmospheric water,[4]; even for low R.H.,very sensitive to atmospheric water
same,deliquescence,"[4]; high relative humidities (≧80% R.H.), 20° C., mass not stabilized after 2300 minutes",becomes deliquescent
"CC(O)(CBr)CCOP(=O)(O)OP(=O)(O)O (stereo not shown) [3-(bromomethyl)-3-butanol-1-yl diphosphoric acid, diquininium salts]",anionic purity of the sample over the storage period,"[3]; glass vial, room temperature (20-25° C.), ambient atmosphere (50-70% RH), at least 5 months, HPAEC",99.5%±0.2%
same,period over which the compound was found to be stable,[3]; stored in a glass vial at room temperature (20-25° C.) and ambient atmosphere (50-70% Relative Humidity),at least 5 months
